Test results as given in the SangsterLogP compilation.

| Structure (SMILES) | logP |
| --- | --- |
| CNC(=O)Oc1ccc(C)cc1 | 1.66 |
| Nc1ccc(C(=O)O)cc1Br | 1.4 |
| Nc1cc(N2CCCCC2)nc(N)[n+]1[O-] | 1.24 |
| CC=CC | 2.33 |
| CC(C(=O)O)c1ccc(-c2ccccc2)c(F)c1 (stereo not drawn) | 4.16 |
| O=C(O)COc1ccccc1[N+](=O)[O-] | 1.13 |
| Oc1cccc2cccnc12 | 2.02 |
| NC1=C(Cl)C(=O)c2ccccc2C1=O | 2.12 |
| CS(=O)(=O)c1ccccc1 | 0.5 |
| O=C(O)c1ccccn1 | 0.72 |
| CCCCCl | 2.64 |
| Cc1cc(O)c(C(C)(C)C)cc1CC(N)=O | 2.67 |
| CCN(CC)CC | 1.45 |
| N#Cc1ccccc1O | 1.61 |
| CCNC | 0.15 |
| O=C(O)COc1ccccc1F | 1.39 |
| OCCCc1ccccc1 | 1.88 |
| NNC(=O)c1ccnc(F)c1 | -0.11 |
| CN1CCN(C2=Nc3cc(Cl)ccc3Nc3ccccc32)CC1 | 3.23 |
| COc1nnc(C(C)C)c(=O)n1N | -0.06 |
| c1ccc(Nc2ccccc2)cc1 | 3.5 |
| Nc1cccc(Cl)c1Cl | 2.82 |
| CNC(=O)Oc1ccc(OC)cc1 | 1.2 |
| CSc1nnc(C)c(=O)n1N | -0.16 |
| CC(=O)Nc1ccc(I)cc1 | 2.71 |

| Structure (SMILES) | logP |
| --- | --- |
| NCCc1c[nH]cn1 | -0.7 |
| NC(=O)Cc1ccncc1 | -0.65 |
| C=CCc1ccccc1OCC(O)CNC(C)C (stereo not drawn) | 3.1 |
| COc1ccccc1O | 1.32 |
| Nc1nc(S)c2nc[nH]c2n1 | -0.07 |
| CNC(C)Cc1ccccc1 (stereo not drawn) | 2.07 |
| OCC1OC(Oc2ccc(O)cc2)C(O)C(O)C1O (stereo not drawn) | -1.35 |
| NC(CCCc1ccccc1)C(=O)O (stereo not drawn) | -0.36 |
| Oc1c(F)c(F)c(F)c(F)c1F | 3.23 |
| Cc1cccc(N)c1 | 1.4 |
| FC(F)(F)c1ccc2cccnc2c1 | 3.02 |
| COC(=O)C(C#N)=NNc1ccc(Cl)cc1C(F)(F)F | 4.66 |
| O=C(O)COc1cccc(C(F)(F)F)c1 | 2.36 |
| Clc1nc2c(Cl)c(Cl)c(Cl)c(Cl)c2[nH]1 | 4.53 |
| CN(C)CCN1c2ccccc2Sc2ccccc21 | 4.2 |
| O=C(O)c1ccccc1O | 2.26 |
| Nc1ncnc2c1ncn2[C@@H]1O[C@H](CO)[C@@H](O)[C@H]1O | -1.05 |
| Cc1ccc(N(C)C)cc1 | 2.81 |
| O=C1[C@H]2CC=CC[C@H]2C(=O)N1SC(Cl)(Cl)Cl | 2.8 |
| Nc1ccc2cc3ccccc3nc2c1 | 2.77 |
| CO/N=C/c1ccccc1 | 2.53 |
| Clc1ccc(-c2ccccc2)cc1 | 4.61 |
| Cc1ccc(C)c(C)c1 | 3.63 |
| CCCl | 1.43 |
| O=C(O)COc1ccccc1 | 1.34 |

| Structure (SMILES) | logP |
| --- | --- |
| CC(=O)Nc1ccc(OCC(O)CNC(C)C)cc1 (stereo not drawn) | 0.79 |
| Cc1cccnc1 | 1.2 |
| CC(=O)C(C#N)=NNc1cccc(Cl)c1 | 3.9 |
| c1ccc2c(c1)Cc1ccccc1-2 | 4.18 |
| CNC(=O)Oc1ccccc1OC(C)C | 1.52 |
| CC(C)c1nnc(N2CCOCC2)n(N)c1=O | 0.49 |
| N#Cc1ccc(S(N)(=O)=O)cc1 | 0.23 |
| Cc1cc(=O)oc2cc(O)ccc12 | 1.9 |
| Cc1cc(Cl)ccc1NN=C(C#N)C(=O)C(C)C | 4.31 |
| O=C(O)CSc1ccccc1 | 1.91 |
| CCOC(C)OCC | 0.84 |
| O=C(c1ccccc1)c1ccc(O)cc1 | 3.07 |
| COc1ccc(NC(C)=O)cc1 | 1.03 |
| CC[C@H](C)N | 0.74 |
| N=c1ccn(O)c2ccccc12 | 0.05 |
| Nc1nc2c(ncn2COCCO)c(=O)[nH]1 | -1.56 |
| CCc1ccc(S(N)(=O)=O)cc1 | 1.31 |
| Cc1ccc2ccccc2c1 | 3.86 |
| CNC(=O)CNC(C)=O | -1.56 |
| O=C(O)Cc1cccc(I)c1 | 2.62 |
| O=C1CN=C(c2ccccc2)c2cc(Cl)ccc2N1CC1CC1 | 3.73 |
| CSc1nncc(=O)n1N | 0.38 |
| COc1ccc(CN(CCN(C)C)c2ccccn2)cc1 | 3.27 |
